Experiment [1] has as its system reporter cell line for IL-2 (EL-4 cells). Description: FCC primary screening with IL-2 reporter cells. The class given is cell-based, mouse. Particulars: relative viability×(relative fluorescence−100); PMA and ionomycin activated, compound 0.4 μg/ml, 18 h. As to the method: (§1) Development of reporter cell lines was described previously (Ulleras, E., D. Trzaska, et al. (2005); “Development of the “Cell Chip”: a new in vitro alternative technique for immunotoxicity testing”, Toxicology 206(2): 245-56). Briefly, EL-4 cells were stably transfected with transgene consisting of promoter regions from mouse β-actin, interleukin-2 (IL-2), interleukin-4 (IL-4), interferon-γ (IFN-γ), and interleukin-10 (IL-10) and ORF for EGFP. Reporter cells were cultured at density 5×10^5-1×10^6 cells/ml in a humidified atmosphere with 5% CO2 at 37° C. in RPMI 1640 with Glutamax supplemented with 20% FCS and 0.5 μg/ml G418.
When applicable, cells and reagents handling was performed by JANUS Automated Workstation (PerkinElmer, Waltham, Mass., USA). Cells were seeded at a density of 5×10^4 per well in 96-well plates. In the primary screening reporter cells for IL-2 activated with PMA (50 ng/ml) and ionomycin (1 μM) were seeded in a 96-well plate and incubated with compounds from the chemical library in a total volume of 100 μL at 37° C. in a humidified atmosphere with 5% CO2 for 18 h. Concentration of compounds was 0.4 μg/ml. The final DMSO concentration was 0.2%, DMSO is not cytotoxic towards EL-4 reporter cells at this concentration. Control samples consisted of cells in medium with 0.2% DMSO with PMA (50 ng/ml) and ionomycin (1 μM). Following incubation cells were analyzed by flow cytometry. Viability was assessed in parallel to the level of EGFP-mediated fluorescence.
Selection of compounds was based on FCC parameters calculated using the following formula:
FCC parameter=relative viability×(relative fluorescence−100)
Compounds after primary screening were considered to be hits when FCC parameter calculated after primary screening was ≦−5000. After secondary screening area under the curve (A) of FCC parameter versus relative concentration was calculated (maximum concentration used, i.e. 50 μg/ml, was assumed to be 1).

Experiment [2] relates to reporter cell line for β-actin (EL-4 cells). The experiment is described as follows: FCC test, expanded version, β-actin reporter cell line. The class given is cell-based, mouse. Particulars: PMA and ionomycin, 1.56 to 50 μg/ml, 50 μg/ml assumed to be 1. As to the method: as §1
(§2) Compounds after primary screening were considered to be hits when FCC parameter calculated after primary screening was ≦−5000. After secondary screening area under the curve (A) of FCC parameter versus relative concentration was calculated (maximum concentration used, i.e. 50 μg/ml, was assumed to be 1). […]
(§3) Flavonoids selected after preliminary screening were undergoing FCC testing using 5 reporter cell lines: for β-actin, interleukin-2 (IL-2), interleukin-4 (IL-4), interferon-γ (IFN-γ) and interleukin-10 (IL-10). The tested concentrations were in the range from 1.56 to 50 μg/ml.
(§4) Using flow cytometry mean fluorescence intensity (columns, left Y axis) and cell viability (dots, the right Y-axis) was determined for all the experimental points and normalized relative to the control—cells incubated with medium with PMA and ionomycin. The data is the mean of the three experiments ±SEM. The statistical significance of differences between means were determined: * p<0.05, ** p<0.01, *** p<0.001 versus control. Values above the graph represent the area under the curve showing the relationship of the FCC parameter and the relative compound concentration.

Experiment [3] concerns reporter cell line for interleukin-2 (EL-4 cells). The experiment is described as follows: FCC test, expanded version, IL-2 reporter cell line. The class given is cell-based, mouse. Particulars: IL-2 reporter line; PMA and ionomycin; 1.56 to 50 μg/ml, 50 μg/ml assumed to be 1. Here is the method: as §1, §2, §3, §4
Experiment [4] has as its system reporter cell line for interleukin-4 (EL-4 cells). Description: FCC test, expanded version, IL-4 reporter cell line. The class given is cell-based, mouse. To be noted: IL-4 reporter line; PMA and ionomycin; 1.56 to 50 μg/ml, 50 μg/ml assumed to be 1. Here is the method: as §1, §2, §3, §4
The subject of experiment [5] is reporter cell line for interferon-γ (EL-4 cells). The experiment is described as follows: FCC test, expanded version, IFN-γ reporter cell line. It counts as cell-based, mouse. Particulars: PMA and ionomycin, 1.56 to 50 μg/ml, 50 μg/ml assumed to be 1. Here is the method:
as §1, §2, §3, §4

Experiment [6] concerns reporter cell line for interleukin-10 (EL-4 cells). Description: FCC test, expanded version, IL-10 reporter cell line. It counts as cell-based, mouse. To be noted: IL-10 reporter line; PMA and ionomycin; 1.56 to 50 μg/ml, 50 μg/ml assumed to be 1. Here is the method:
as §1, §2, §3, §4

Experiment [7] has as its system IL-2 production by Jurkat cells. Description: ELISA for IL-2 in Jurkat cells. It counts as cell-based. To be noted: Jurkat cells, PMA and ionomycin, 24 hours; for inhibition at 50 µg/mL / inhibition at 10 µg/mL: Homo sapiens. Here is the method:
Jurkat cells were seeded in 48-well plates at a concentration of 1 million/ml. Cells activated with PMA (50 ng/ml) and ionomycin (1 uM) or resting were incubated with 50 selected flavonoids in a concentration of 10 μg/ml and 50 μg/ml for 24 hours in a humidified atmosphere with 5% CO 2 at 37° C. As a control, the respective cells in the medium or in a medium with PMA and ionomycin were employed. After incubation, cells were centrifuged (8 minutes, 1300 rpm), and the cell-free supernatants were stored at −20° C. until measurements. IL-2 was assessed using a commercially available ELISA kits according to the manufacturer's instructions. Each experiment was repeated 3 times.
FCC assay and ELISA assay were repeated three times. Relative data were presented as the means±SEM. […] Statistical significance of differences observed in both assays was tested with ANOVA followed by post hoc Dunnett test using GraphPad software (La Jolla, Calif., USA). In statistical analysis non-relative data were used

Structures are written as SMILES.

Take `COc1ccc(C2CC(=O)c3cc(O)cc(O)c3O2)cc1` (stereo not shown) [Compound 1, 6,8-dihydroxy-2-(4-methoxyphenyl)chroman-4-one]: in experiment [1], the “FCC parameter (IL-2 screening)” value is reported as −8723. Also, the “The area under the curve showing the relationship between the FCC parameter and compound concentration, AKT” value (“The area … AKT” below) in experiment [2] is reported as −622. Moreover, in experiment [3], the “The area under the curve showing the relationship between the FCC parameter and compound concentration, IL-2” value (from here on “The area … IL-2”) is −2178. The “The area under the curve showing the relationship between the FCC parameter and compound concentration, IL-4” value (“The area … IL-4” below) in experiment [4] is listed as −194. The “The area under the curve showing the relationship between the FCC parameter and compound concentration, IFN” value (shortened to “The area … IFN”) in experiment [5] is −1865. The “The area under the curve showing the relationship between the FCC parameter and compound concentration, IL-10” value (“The area … IL-10” below) in experiment [6] was −1435. For the same compound, the “Inhibition of IL-2 production (ELISA)” value in experiment [7] (10 μg/ml) was “No”. For the same compound, the inhibition at 50 µg/mL in experiment [7] (50 μg/ml) stood at 97%.

On to `CC1(C)CC2(CC(c3ccccc3)Oc3cc(O)ccc32)NC(=S)N1` (stereo not shown) [Compound 2, Spiro[4H-1-benzopyran-4,4′(1′H)-pyrimidine]-2′(3′H)-thione, 2,3,5′,6′-tetrahydro-7-hydroxy-6′,6′-dimethyl-2-phenyl], for which the “FCC parameter (IL-2 screening)” value in experiment [1] is −5484. Moreover, the “The area … AKT” value in experiment [2] was −1120. Moreover, the “The area … IL-2” value in experiment [3] is recorded as −2394. Moreover, the “The area … IL-4” value in experiment [4] is 261. In experiment [5], the “The area … IFN” value is recorded as −3977. Also, in experiment [6], the “The area … IL-10” value is on record as −2585. Moreover, the “Inhibition of IL-2 production (ELISA)” value worked out at 35% in experiment [7] (10 μg/ml) and 91% in experiment [7] (50 μg/ml).

Regarding `CC(=O)Oc1ccc(/C=C/C(=O)CC2OC(Oc3cc(OC(C)=O)c4c(c3)O[C@@H](c3ccc(OC(C)=O)cc3)CC4=O)C(OC(C)=O)C(OC(C)=O)C2OC(C)=O)cc1` (stereo partly drawn) [Compound 3, 4-(7-{6-[(3E)-4-(4-acetyloxyphenyl)-2-oxobut-3-enyl]-3,4,5-triacetyloxy(2H-3,4,5,6-tetrahydropyran-2-yloxy)}(2R)-5-acetyloxy-4-oxochroman-2-yl)phenyl acetate], the “FCC parameter (IL-2 screening)” value in experiment [1] is −5095. Besides, the “The area … AKT” value in experiment [2] is 945. In addition, in experiment [3], the “The area … IL-2” value is −4581. The “The area … IL-4” value in experiment [4] is reported as −308. Further, the “The area … IFN” value in experiment [5] is on record as −3801. For the same compound, the “The area … IL-10” value in experiment [6] is listed as −1509. The “Inhibition of IL-2 production (ELISA)” value in experiment [7] (10 μg/ml) came out at 64%; in experiment [7] (50 μg/ml) it was 68%.

Turning to `CC(=O)Oc1ccc2c(c1)OC(c1ccccc1)CC21CC(C)(C)NC(=S)N1` (stereo not shown) [Compound 4, 7-acetoksy-2,3,5′,6′-tetrahydro-6′,6′-dimetylo-2-fenylo-spiro[4H-1-benzopirano-4,4′(1′H)-pirymidyno]-2′(3′H)-tion], the “FCC parameter (IL-2 screening)” value in experiment [1] is −5692. The “The area … AKT” value in experiment [2] was −104. The “The area … IL-2” value in experiment [3] is −1081. For the same compound, the “The area … IL-4” value in experiment [4] was 988. Further, the “The area … IFN” value in experiment [5] was −3521. Moreover, in experiment [6], the “The area … IL-10” value is −1928. The “Inhibition of IL-2 production (ELISA)” value in experiment [7] (10 μg/ml) is recorded as 27%; in experiment [7] (50 μg/ml) it was 44%.

Take `CC(C)=CCc1c(O)cc(O)c2c1OC(c1ccc(O)cc1)CC2=O` (stereo not shown) [Compound 5, 5,7-dihydroxy-2-(4-hydroxyphenyl)-8-(3-methylbut-2-enyl)chroman-4-one]: the “FCC parameter (IL-2 screening)” value in experiment [1] is −5264. Further, the “The area … AKT” value in experiment [2] is reported as −979. The “The area … IL-2” value in experiment [3] was −4991. For the same compound, the “The area … IL-4” value in experiment [4] was −3324. The “The area … IFN” value in experiment [5] is reported as −4565. For the same compound, the “The area … IL-10” value in experiment [6] is recorded as −3119. The compound further had an inhibition at 10 µg/mL in experiment [7] (10 μg/ml) of 28%. The same compound showed an inhibition at 50 µg/mL in experiment [7] (50 μg/ml) of 95%.

As for `O=C1CC(c2ccccc2O)Oc2ccc(O)cc21` (stereo not shown) [Compound 6, 6-hydroxy-2-(2-hydroxyphenyl)chroman-4-one], the “FCC parameter (IL-2 screening)” value in experiment [1] is given as −5169. The “The area … AKT” value in experiment [2] turned out to be 3622. Also, the “The area … IL-2” value in experiment [3] is −2227. In addition, the “The area … IL-4” value in experiment [4] was determined as 367. For the same compound, the “The area … IFN” value in experiment [5] is −2999. For the same compound, the “The area … IL-10” value in experiment [6] was −179. In experiment [7] (10 μg/ml), the inhibition at 10 µg/mL came to 58%. The same compound gave an inhibition at 50 µg/mL in experiment [7] (50 μg/ml) of 100%.

Regarding `COc1ccc2c(c1)OC(c1cccc(OC)c1OC)CC2=O` (stereo not shown) [Compound 7, 2-(2,3-dimethoxyphenyl)-7-methoxychroman-4-one], the “FCC parameter (IL-2 screening)” value in experiment [1] is on record as −6178. In experiment [2], the “The area … AKT” value is listed as −1357. The “The area … IL-2” value in experiment [3] is given as −4104. The “The area … IL-4” value in experiment [4] was −1865. The “The area … IFN” value in experiment [5] was −5873. For the same compound, the “The area … IL-10” value in experiment [6] was −2889. This compound also yielded an inhibition at 10 µg/mL in experiment [7] (10 μg/ml) of 67%. Testing at 50 µg/mL in experiment [7] (50 μg/ml) gave an inhibition of 92%.

On to `COc1cc(OC)c2c(c1)OC(c1ccccc1)CC2=O` (stereo not shown) [Compound 8, 5,7-dimethoxy-2-phenylchroman-4-one], for which, in experiment [1], the “FCC parameter (IL-2 screening)” value is given as −5788. In experiment [2], the “The area … AKT” value turned out to be 3973. In addition, the “The area … IL-2” value in experiment [3] is given as −2590. In experiment [4], the “The area … IL-4” value came out at 2380. The “The area … IFN” value in experiment [5] is recorded as −4396. Further, in experiment [6], the “The area … IL-10” value is −628. Testing at 10 µg/mL in experiment [7] (10 μg/ml) gave an inhibition of 80%. Besides, in experiment [7] (50 μg/ml), testing at 50 µg/mL gave an inhibition of 100%.

Values taken from US20170189372A1, “USE OF SUBSTITUTED CHROMAN COMPOUNDS” (INSTYTUT BIOLOGII MEDYCZNEJ, priority 2014, published 2017).
